Among the data in patent US6355633B1, “Aryl sulfonic acids and derivatives as FSH antagonists” (American Home Products Corporation, priority 1999, dated 2002) are IC50 values, retold here.

The target in test [1] is T1, FSH receptor (Homo sapiens, UniProt P23945).
T1 sequence (P23945 18-695): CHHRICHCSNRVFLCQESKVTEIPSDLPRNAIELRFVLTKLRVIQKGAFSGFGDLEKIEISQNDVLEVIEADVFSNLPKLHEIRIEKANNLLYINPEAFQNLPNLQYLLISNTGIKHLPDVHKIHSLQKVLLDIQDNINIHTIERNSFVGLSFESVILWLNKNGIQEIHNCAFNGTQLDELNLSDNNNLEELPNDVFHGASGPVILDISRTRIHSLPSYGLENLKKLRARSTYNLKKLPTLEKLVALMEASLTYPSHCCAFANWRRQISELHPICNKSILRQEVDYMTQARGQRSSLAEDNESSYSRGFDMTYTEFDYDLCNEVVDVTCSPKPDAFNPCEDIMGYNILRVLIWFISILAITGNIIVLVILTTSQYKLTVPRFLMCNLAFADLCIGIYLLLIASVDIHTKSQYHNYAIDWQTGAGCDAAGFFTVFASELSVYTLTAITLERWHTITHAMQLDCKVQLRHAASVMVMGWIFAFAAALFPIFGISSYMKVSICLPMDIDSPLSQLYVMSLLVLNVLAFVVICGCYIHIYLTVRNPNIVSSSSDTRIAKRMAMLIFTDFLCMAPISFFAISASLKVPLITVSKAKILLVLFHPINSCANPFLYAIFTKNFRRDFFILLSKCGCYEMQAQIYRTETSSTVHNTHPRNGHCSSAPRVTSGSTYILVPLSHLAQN
As to the kind of experiment: FSH Receptor Radioligand Membrane Binding Standard Pharmacological Test Procedure. Set-up: expressed in transfected cells. To be noted: [125I]FSH binding to membranes of CHO cells stably transfected with the human FSH receptor. The procedure: FSH Receptor Radioligand Membrane Binding Standard Pharmacological Test Procedure
Membrane Source: Chinese hamster ovarian cells stably transfected with the human FSH receptor were cultured (Ultra CHO medium containing 1% fetal bovine serum and 200 μg/mL G418) in and harvested. Cells were collected by centrifugation and resulting cell pellets were frozen and stored at −70° C.
Membrane Receptor Preparation: Frozen cell pellets were weighed and resuspended in binding buffer to a final concentration of 30 mg wet weight/mL. Cell suspension for each pellet was homogenized using a Tempest homogenizer (setting=1; 5 strokes; VirTis, Gardiner, N.Y.). Cell homogenates were pooled and 35 mL aliquots were transferred to 50-mL polypropylene copolymer centrifuge tubes (Nalgene cat. #3110-0500). Tubes were spun at 12,000 rpm (SS34 rotor) for 12 min at 4° C. Resulting supernatant fractions were discarded and pellets were stored at −70° C. until use. On the day of the procedure, 35 mL binding buffer was added to each tube (35 mL membrane suspension was sufficient for three 96-well plates). The membrane pellet was dispersed by trituration using a pipet. The resulting suspension wass homogenized using a Tempest homogenizer (3 strokes at setting=1).
Receptor Binding Test procedure: Membrane homogenate (100 μl) was added to each well of a 96-well microtiter plate (Falcon # 3077). All reactions were tested in triplicate. Test compound solutions (50 μl) were added to the designated wells. Total bound counts were determined by adding 50 μl binding buffer containing 4% DMSO to the designated wells. […] Plates were pre-incubated for 15 min at room temperature on shaking platform (setting=3). After preincubation [^125I]FSH (50 μl) was added to each well and plates were incubated for 2 h at room temperature on shaking platform (setting=3). The reaction was terminated by transfer of the membrane preparation to glass fiber filters (Blue Mat #11740; 102×256 mm; Skatron Instruments, Sterling, Va.) that had been pretreated with 1% BSA in wash buffer for at least 30 min, but not longer than 1 h using a 96-well microtiter vacuum harvester (Skatron Instruments). The membrane preparation was washed with 5 cycles of ice-cold wash buffer (200 μl/well/cycle) followed by a pulse wash of 3 cycles (100 μl/well/cycle). The total wash volume per well was 1.3 mL. The filters were dried by a 10 sec aspiration. Disks corresponding to each well of the microtiter plate were punched out of the filter mat into 12×75 mm polypropylene tubes. The radioactivity present on each of the disks was measured using a gamma counter.
An FSH dose response curve (0.001, 0.01, 0.1, 1, 10, and 100 nM) was generated for each binding procedure to monitor procedure to procedrue variability.
FSH Receptor Radioligand Membrane Binding Procedure Buffers and Reagents
Binding buffer is prepared in 11 volumes containing Trizma-HCl, MgCl2, CaCl2 and sodium azide, the pH was adjusted to 7.2 with NaOH, and stored at 4° C. until use. BSA was weighed out on the day of the procedure and added to the amount of buffer required for the procedure (usually 150 mL). The protease inhibitors were prepared as 1 mg/mL stocks (aprotinin, leupeptin, and phosphoramidon were prepared in binding buffer without BSA and protease inhibitors; pepstatin and PMSF were prepared in methanol), stored in 1 mL aliquots at −70° C., and added to the binding buffer on the day of the procedure.
Wash buffer was prepared containing Trizma-HCl, MgCl2 and EDTA, the pH was adjusted to 7.2 with NaOH, and stored at 4° C.
Filter Soak Buffer (pH 7.2)
BSA was weighed out on the day of the procedure and added to 300 mL of wash buffer. The filter soak buffer was used for two procedures before being discarded.
A portion of the stock solution was diluted in binding buffer to a concentration of 200 pM.
FSH Solution for Determining Non-specific Binding: Purified human FSH was prepared as a 100 μM solution in binding buffer without protease inhibitors. […]

Test [2] addresses T1, FSH receptor. Description: In Vitro Bio-test Procedure of Agonists and Antagonists to the FSH Receptor (cAMP accumulation in CHO-3D2 cells). It is filed as cell-based. Details: expressed in transfected cells; host or cells: CHO-3D2 cells. Here is the method: In Vitro Bio-test Procedure of Agonists and Antagonists to the FSH Receptor
The compounds were subsequently diluted in sterile procedure medium (Optimem (Gibco/BRL, Grand Island, N.Y.)/0.1% BSA) prior to use in the bio-procedure.
Preparation of CHO-3D2 Cells; CHO-3D2 cells were plated into 96-well Nunc tissue culture plates at a density of 30,000 cells/well in DMEM/F12 medium (Gibco/BRL, Grand Island, N.Y.) supplemented with 5% Fetal Bovine Serum (Hyclone, Fetal Clone II), 2 mM L-glutamine and penicillin/streptomycin (100 U/mL). Cells were plated one day prior to performing the bio-procedure.
Procedure: On the day of procedure, the wells were washed two times with 100 ul/well of pre-warmed (37 deg C.) procedure medium. After aspirating the second wash, an additional 100 ul of procedure medium was added to each well and the cells pre-incubated for 30-45 minutes at 37 deg C. In a humidified incubator with 5%CO2/95% air. The cells were then challenged with varying dilutions of the test substance(s) in a 50 ul total incubation volume in procedure medium for 30 minutes at 37 deg C. in the humidified incubator. The challenge was terminated by the addition of 50 ul of 0.2 N HCl to each well. CAMP accumulation in the medium was measured by radioimmunoassay.
Test Groups: In the 96-well format, the plate is organized into 12 columns each containing 8 rows of wells. The plate was split in half to test a single compound in both agonist and antagonist mode on the same plate.
For agonist mode, compounds were tested using 5 different concentrations in a dose-response paradigm using one column as a control (challenge medium alone) in agonist mode.
The 96-well format allowed for the capability to test 4 columns of compound, using one of the remaining columns for negative control (challenge medium alone) and the other remaining column for ampositive control (ED20 of FSH alone).
The doses chosen to test each compound were extrapolated from the initial screening process (receptor binding data). Along with the test compounds, FSH was run in agonist mode using doses ranging from 0.1 ng/mL-1000 ng/mL as a postive control. Cytotoxicity of the compounds were screened by treating cells with the highest concentration of each compound used in the cAMP procedure for 30 minutes followed by washing of the cells 2 times with 100 ul PBS. The cells were then incubated for 5 min at 37 deg C. in the presence of 50 ug/mL Fluorescein diacetate and 20 ug/mL Propidium iodide in 100 ul PBS. The cells were washed two times with 100 ul PBS followed by examination of the cells under a fluorescence microscope using a 490 nm filter. Viable cells stained green throughout, while dead cells had red fluorescent nuclei.
Analysis of Results: cAMP accumulation was expressed as fmol/mL. […] Data were analyzed statistically by analysis of variance and significant differences between treatments and control determined by Dunnett's test. In antagonist mode, a Duncan's test was used.
Reference Compounds: Test compounds were compared to the effect of purified or recombinant human FSH.
(cAMP levels reflect the balance of adenylyl cyclase and phosphodiesterase activity.)

Consider `COc1ccc(C(=O)Nc2ccc(/C=C/c3ccc(NC(=O)c4ccc(OC)c(S(=O)(=O)N5CCCCCC5)c4)cc3S(=O)(=O)O)c(S(=O)(=O)O)c2)cc1S(=O)(=O)N1CCCCCC1` [Example 33f], for which the IC50 – broadly, the concentration at which inhibition is half-maximal – was 16 µM on FSH receptor [1] and 11 µM on FSH receptor [2].

With `COCCOc1ccc(C(=O)Nc2ccc(CCc3ccc(NC(=O)c4ccc(OC)c(S(=O)(=O)N5CCOCC5)c4)cc3S(=O)(=O)O)c(S(=O)(=O)O)c2)cc1` [Example 43h, 5-[[4-(2-Methoxyethoxy)benzoyl]amino]-2-[2-[4-[[4-methoxy-3-(4-morpholinylsulfonyl)benzoyl]amino]-2-sulfophenyl]ethyl]benzenesulfonic Acid], the IC50 at FSH receptor [1] and on FSH receptor [2] was 12 µM each time.

For the compound `COc1ccc(C(=O)Nc2ccc(/C=C/c3ccc(NC(=O)c4ccc(OC)c(S(=O)(=O)NCCN5CCOCC5)c4)cc3S(=O)(=O)O)c(S(=O)(=O)O)c2)cc1S(=O)(=O)NCCN1CCOCC1` [Example 30n], the IC50 at FSH receptor [1] is 1.8 µM; at FSH receptor [2] it was 5.5 µM.

As for `O=C(O)C=CCS(=O)(=O)c1cccc(C(=O)Nc2ccc(C=Cc3ccc(NC(=O)c4cccc(S(=O)(=O)CC=CC(=O)O)c4)cc3S(=O)(=O)O)c(S(=O)(=O)O)c2)c1` [Example 36c, 4-{3-[4-(2-{4-[3-(3-Carboxy-prop-2-ene-1-sulfonyl)-benzoylamino]-2-sulfo-phenyl}-vinyl)-3-sulfo-phenylcarbomoyl]-benzenesulfonyl}-but-2-enoic Acid], the IC50 turned out to be 5.4 µM on FSH receptor [1] and 9.5 µM at FSH receptor [2].

As for `COCCOc1ccc(C(=O)Nc2ccc(/C=C/c3ccc(NC(=O)c4ccc(OC)c(S(=O)(=O)N5CCOCC5)c4)cc3S(=O)(=O)O)c(S(=O)(=O)O)c2)cc1` [Example 42, 5-[[4-(2-Methoxyethoxy)benzoyl]amino]-2-[(E)-2-[4-[[4-methoxy-3-(4-morpholinylsulfonyl)benzoyl]amino]-2-sulfo-phenyl]ethenyl]benzenesulfonic Acid], the IC50 came to 6.9 µM on FSH receptor [1] and 2.7 µM on FSH receptor [2].

As to `CS(=O)(=O)c1ccc(C(=O)Nc2ccc(/C=C/c3ccc(NC(=O)c4ccc(S(C)(=O)=O)s4)cc3S(=O)(=O)O)c(S(=O)(=O)O)c2)s1` [Example 32b, 2,2′-[(E)-1,2-Ethenediyl]bis[5-[[[5-(methylsulfonyl)-2-thienyl]carbonyl]amino]benzenesulfonic Acid]], the results for the IC50 at FSH receptor [1] and on FSH receptor [2] were 3.2 µM and 2.6 µM, respectively.

Regarding `C=CCS(=O)(=O)c1ccc(C(=O)Nc2ccc(/C=C/c3ccc(NC(=O)c4ccc(S(=O)(=O)CC=C)cc4)cc3S(=O)(=O)O)c(S(=O)(=O)O)c2)cc1` [Example 32a], the figures for the IC50 at FSH receptor [1] and on FSH receptor [2] were 3.5 µM and 2.3 µM, respectively.

`COC(=O)C=CCS(=O)(=O)c1cccc(C(=O)Nc2ccc(C=Cc3ccc(NC(=O)c4cccc(S(=O)(=O)CC=CC(=O)OC)c4)cc3S(=O)(=O)O)c(S(=O)(=O)O)c2)c1` [Example 32e, 4-{3-[4-(2-{4-{3-(3-Methoxycarbonyl-prop-2-ene-1-sulfonyl)-benzoylamino]-2-sulfo-phenyl}-vinyl)-3-sulfo-phenylcarbomoyl]-benzenesulfonyl}-but-2-enoic Acid, Methyl Ester]: the IC50 on FSH receptor [1] was determined as 4.9 µM; on FSH receptor [2] (antagonist mode, inhibition of hFSH-induced cAMP accumulation (ED20 of FSH, […]), CHO-3D2 cells) it was 9 µM.

Regarding `O=C(CS(=O)(=O)c1ccc(C(=O)Nc2ccc(/C=C/c3ccc(NC(=O)c4ccc(S(=O)(=O)CC(=O)NCCO)cc4)cc3S(=O)(=O)O)c(S(=O)(=O)O)c2)cc1)NCCO` [Example 37a, 5-[[4-[[2-[(2-Hydroxyethyl)amino]-2-oxoethyl]sulfonyl]benzoyl]amino]-2-[(E)-2-[4-[[4-[[2-[(2-hydroxyethyl)amino]-2-oxoethyl]sulfonyl]benzoyl]amino]-2-sulfo-phenyl]ethenyl]benzenesulfonic Acid], the IC50 on FSH receptor [1] was 2 µM; on FSH receptor [2], 2.1 µM.

Consider `COc1ccc(C(=O)Nc2ccc(CCc3ccc(NC(=O)c4ccc(OC)c(S(=O)(=O)N5CCOCC5)c4)cc3S(=O)(=O)O)c(S(=O)(=O)O)c2)cc1S(=O)(=O)N1CCOCC1` [Example 30p, 2,2′-(1,2-Ethanediyl)bis[5-[[4-methoxy-3-(4-morpholinylsulfonyl)benzoyl]amino]benzenesulfonic Acid]], for which the values for the half-maximal inhibitory concentration (IC50) on FSH receptor [1] and on FSH receptor [2] were 2.5 µM and 11 µM, respectively.
